# Experimental data published in article PMC11892739, “Site-specific molecular glues for the 14-3-3/Tau pS214 protein–protein interaction via reversible covalent imine tethering” (RSC Medicinal Chemistry, 2025).
# What was measured:
# Type in all cases: binding
# [1] = target: T1, 14-3-3ζ/Raptor peptide (Homo sapiens, UniProt P63104); experiment: FA peptide screen, 14-3-3ζ titration to client peptide and compound: Raptor; conditions: 250 μM compound, 100 nM peptide; +1 Tyr
# T1 construct: made in house; host or cells: NiCo21 (DE3) E. coli
# T1 sequence (P63104 whole entry, other chains not shown): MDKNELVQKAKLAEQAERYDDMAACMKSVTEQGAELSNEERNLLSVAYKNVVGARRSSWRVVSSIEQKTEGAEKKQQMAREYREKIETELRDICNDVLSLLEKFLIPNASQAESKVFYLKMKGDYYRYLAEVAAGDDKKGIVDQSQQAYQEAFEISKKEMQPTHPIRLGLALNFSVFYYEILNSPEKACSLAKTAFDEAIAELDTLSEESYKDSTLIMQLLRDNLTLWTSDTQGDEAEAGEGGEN
# Protocol: (§1) Since the hub protein 14-3-3 binds to hundreds of phosphoprotein partners, selectivity of PPI stabilization is a major challenge. The interplay of chemical reactivity, and the topology and functionality of the composite binding pocket shaped by 14-3-3 and Tau potentially provide entries towards selective stabilization. […] Here, 14-3-3ζ was titrated to a constant concentration of client peptide (100 nM) and compound (250 μM) to determine the SF250μM values for the particular 14-3-3 PPI. A variety of 14-3-3 binding proteins was represented in this client panel whereby the size and hydrophobicity of the +1 amino acid were varied. […]
# (§2) chromatography (HisTrap high performance cartridges, Cytiva). Typically two 5 mL columns were used for a 2 L culture in which the lysate was loaded on the column, washed with 10 CV wash buffer (50 mM Hepes, pH 8.0, 300 mM NaCl, 25 mM imidazole, 2 mM βME), and eluted with several fractions (2-4 CV) of elution buffer (50 mM Hepes, pH 8.0, 300 mM NaCl, 250 mM imidazole, 2 mM βME). […] Dialyzed protein was concentrated to ∼40 mg/mL, analyzed by Q -Tof LC/MS, and aliquots were flash -frozen for storage at −80 °C. […] Fractions containing the 14 -3-3 protein were pooled and concentrated to ∼60 mg/mL, analyzed Q -Tof LC/MS, and aliquots were flash -frozen for storage at −80°C.
# (§3) Fluorescence Anisotropy – compound titration […]
# [2] = target: T2, 14-3-3ζ/Rubic peptide (Homo sapiens, UniProt P63104); experiment: FA peptide screen, 14-3-3ζ titration to client peptide and compound: Rubic; conditions: 250 μM compound, 100 nM peptide; +1 Phe
# T2 construct: made in house; host or cells: NiCo21 (DE3) E. coli
# T2 sequence (P63104 whole entry, other chains not shown): as above
# Protocol: as §1, §2, §3
# [3] = target: T3, 14-3-3ζ/C-Raf peptide (Homo sapiens, UniProt P63104); experiment: FA peptide screen, 14-3-3ζ titration to client peptide and compound: C-Raf; conditions: 250 μM compound, 100 nM peptide; +1 Thr
# T3 construct: made in house; host or cells: NiCo21 (DE3) E. coli
# T3 sequence (P63104 whole entry): as the sequence (P63104 whole entry, other chains not shown) above
# Protocol: as §1, §2, §3
smiles,measurement,setting,value
CCc1ccc(-c2nccn2-c2ccc(C=O)c(Br)c2)cc1 [Compound 18],stabilization of 14-3-3/Raptor peptide (in words),[1],no significant stabilization
same,stabilization of 14-3-3/Rubic peptide (in words),[2],no significant stabilization
same,stabilization of 14-3-3/C-Raf peptide (in words),[3],did not show significant stabilizing activity
